Results taken from US20090088380A1, “GHRH ANALOGS AND THERAPEUTIC USES THEREOF” (priority 2007, published 2009).
Read-outs that look alike come from different tables or passages of the source. Non-standard residues stand in square brackets, D forms with d. Residues, ends and D or L forms follow the SMILES beside them. No end group written: not given here.

Key:
[1] = molecular target: T1, hGHRH(1-44)-NH2 binding sites in rat anterior pituitary (Rattus norvegicus, UniProt Q02644); experiment: Relative binding affinity in rat anterior pituitary preparations, [125I-Tyr10]hGHRH(1-44)-NH2 radioligand; conditions: values compared to hGHRH(1-29)-NH2
T1 construct: from tissue; host or cells: anterior pituitary of 2-month old male Sprague Dawley rats
T1 sequence (Q02644 23-423 isoform Q02644-2 limits assumed): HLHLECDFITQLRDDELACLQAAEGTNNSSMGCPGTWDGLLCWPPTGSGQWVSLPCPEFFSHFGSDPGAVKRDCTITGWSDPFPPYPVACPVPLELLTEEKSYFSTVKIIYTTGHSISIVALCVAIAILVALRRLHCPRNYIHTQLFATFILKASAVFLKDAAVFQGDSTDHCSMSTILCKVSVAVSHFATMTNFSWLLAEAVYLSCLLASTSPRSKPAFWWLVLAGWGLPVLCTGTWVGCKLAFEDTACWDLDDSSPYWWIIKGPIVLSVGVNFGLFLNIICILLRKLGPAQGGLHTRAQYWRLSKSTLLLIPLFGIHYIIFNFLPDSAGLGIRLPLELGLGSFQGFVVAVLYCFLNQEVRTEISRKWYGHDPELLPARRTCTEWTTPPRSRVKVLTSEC
Text: Initial selection of a candidate from the original 14 polysubstituted GHRH analogs described in the U.S. Pat. No. 5,854,216 was based upon in vitro data on receptor affinity in 2-month old male Sprague Dawley rat anterior pituitary preparations. The embodiments are based on the affinity of selected GHRH analogs for the human GHRH receptor (hGHRH-R) in baby hamster kidney (BHK) cells transfected with hGHRH-R, and on resistance to proteolysis in rat serum, human plasma or human serum. More precisely, the preferred drug candidates were selected, as compared to hGHRH(1-29)-NH2, for: i-their increased relative binding affinity to hGHRH(1-44)-NH2 binding sites in rat anterior pituitary in vitro as well as to hGHRH-R in BHK-expressing cells in vitro; and ii-their relative resistance to proteolysis in vitro.

human GHRH receptor = molecular target: T2, human GHRH receptor (Homo sapiens, UniProt Q02643); experiment: 125I-GHRH competitive binding assay in BHK cell membrane preparations; conditions: in comparison with hGHRH(1-29)NH2; ratio IC50 hGHRH(1-29)-NH2/IC50 analog
T2 construct: expressed in transfected cells; host or cells: BHK (baby hamster kidney) 570 cells, membrane preparations
T2 sequence (Q02643 23-423): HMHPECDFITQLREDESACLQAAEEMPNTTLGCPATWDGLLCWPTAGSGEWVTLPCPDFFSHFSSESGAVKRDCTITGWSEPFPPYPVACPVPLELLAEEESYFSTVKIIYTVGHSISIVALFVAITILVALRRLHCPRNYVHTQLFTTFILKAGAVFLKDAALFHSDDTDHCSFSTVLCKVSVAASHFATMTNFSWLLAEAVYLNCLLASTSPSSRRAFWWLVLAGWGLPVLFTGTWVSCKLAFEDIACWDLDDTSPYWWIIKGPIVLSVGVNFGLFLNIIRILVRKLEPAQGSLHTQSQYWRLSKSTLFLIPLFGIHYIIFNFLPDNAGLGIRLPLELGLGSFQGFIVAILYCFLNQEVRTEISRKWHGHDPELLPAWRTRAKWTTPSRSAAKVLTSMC
Procedure: Non specific binding was determined in presence of 1 μM hGHRH(1-29)NH2. Incubation was carried out at equilibrium (23° C., 60 min) and stopped by centrifugation (12,000 g, 5 min, at 4° C.). The radioactivity content in pellets was determined by gamma counting. The affinity of hGHRH(1-29) NH2 was tested in each experiment to assess the validity of the assay and determine the relative affinity of the analogs.
Values represent the mean±SEM of 3 experiments performed in triplicate for the analogs and the mean±SEM of 2 experiments performed in triplicate for hGHRH(1-44) NH2.
For the binding assay results presented in Tables 8 to 11, values represent the mean±SEM of 8 independent experiments performed in triplicate for the analogs and the mean±SEM of 4 experiments performed in triplicate for hGHRH(1-29)NH2. […] The relative affinity was obtained by taking the ratio IC50 of hGHRH (1-29)-NH2/IC50 analog.

[2] = In vitro proteolysis assay in rat serum; format: in vitro ADME; conditions: for Relative resistance to proteolysis in vitro: compared to hGHRH(1-29)-NH2; for Residual concentration (% of initial concentration): incubation 0 min
Procedure: Proteolysis was stopped by adding 800 μl of ice-cold stop buffer (potassium-phosphate buffer, acidified to pH 0.8 with trifluoroacetic acid (TFA) and boiling 5 min (rat serum only). After centrifugation (12000 g, 5 min, 4° C.) (rat serum only), serum-peptide mixtures were passed through a conditioned Sep-Pak C-18 cartridge to extract native GHRH or a GHRH analog residual concentrations from serum proteins. The native GHRH or the analog was eluted in 2 ml of 50% acetonitrile-0.01% TFA/50% 0.01% aqueous TFA. 200 μl of extracted peptide, representing 1 μg of GHRH or analog at time 0, was quantified by analytical HPLC, using one μ-Bondapak C18 column (10 μm particle size, 0.39×15 cm) (rat serum) or two C18 columns in series (human serum and plasma) and a binary solvent system composed of NaClO4 0.01 M, pH 2.5 and acetonitrile. A linear gradient from 30 to 60% acetonitrile over 45 min (rat serum) or 30 to 50% (human serum and plasma) was used. Elution of intact peptide was monitored at 214 nm and residual concentration determined by assessment of peak surface areas.

rat GHRH receptor (rat) = rat GHRH receptor (rat) (UniProt Q02644); experiment: competition with [125I-Tyr10]hGHRH(1-44)-NH2, rat anterior pituitary membrane preparations
[3] = molecular target: human GHRH receptor (human) (UniProt Q02643); experiment: competition with [125I-Tyr10]hGHRH(1-44)NH2, BHK cell membrane preparations expressing the human GHRH receptor
[4] = molecular target: human GHRH receptor (human) (UniProt Q02643); experiment: as above; remark: listed apart in the source

Compound | Relative binding affinity in rat anterior pituitary [1] | Relative binding affinity (R1) in hGHRH-R BHK-expressing cells (human GHRH receptor) | Relative resistance to proteolysis in vitro [2] | Residual concentration (% of initial concentration) [2] | Relative binding affinity in rat anterior pituitary (relative to hGHRH(1-29)-NH2) (rat GHRH receptor (rat)) | IC50 [3] [pM] | IC50 [4] [pM] | Relative binding affinity (R1) in comparison with hGHRH(1-29)NH2 ([4]; scale: ratio IC50 of hGHRH)
CC[C@H](C)[C@H](NC(=O)[C@H](C)NC(=O)[C@H](CC(=O)O)NC(=O)[C@@H](C)NC(=O)[C@@H](N)Cc1ccc(O)cc1)C(=O)N[C@@H](Cc1ccccc1)C(=O)N[C@H](C(=O)N[C@@H](C)C(=O)N[C@@H](CO)C(=O)N[C@H](Cc1ccc(O)cc1)C(=O)N[C@@H](CCCNC(=N)N)C(=O)N[C@@H](CCCCN)C(=O)N[C@H](C(=O)N[C@@H](CC(C)C)C(=O)N[C@@H](C)C(=O)N[C@@H](CCC(N)=O)C(=O)N[C@@H](CC(C)C)C(=O)N[C@@H](CO)C(=O)N[C@@H](C)C(=O)N[C@@H](CCCNC(=N)N)C(=O)N[C@H](CCCCN)C(=O)N[C@@H](CCCCN)C(=O)N[C@@H](CC(C)C)C(=O)N[C@@H](CCC(N)=O)C(=O)N[C@@H](CC(=O)O)C(=O)N[C@H](C(=O)N[C@@H](CCSC)C(=O)N[C@@H](CO)C(=O)N[C@@H](CCCNC(=N)N)C(N)=O)[C@@H](C)CC)C(C)C)[C@@H](C)O [GHRH analog #4, [D-Ala^2, Ala^8, D-Tyr^10, Ala^15, D-Lys^21, Lys^22] hGHRH(1-29)-NH2] (H-Y[dA]DAIFTAS[dY]RKVLAQLSAR[dK]KLQDIMSR-NH2; N-terminus assumed) | 5.00 ± 0.91 | 0.05 ± 0.01 | 6.06 | 100 ± 0 % of initial concentration | – | – | – | –
CC[C@H](C)[C@H](NC(=O)[C@H](C)NC(=O)[C@H](CC(=O)O)NC(=O)[C@@H](C)NC(=O)[C@@H](N)Cc1ccc(O)cc1)C(=O)N[C@@H](Cc1ccccc1)C(=O)N[C@H](C(=O)N[C@@H](C)C(=O)N[C@@H](CO)C(=O)N[C@@H](Cc1ccc(O)cc1)C(=O)N[C@@H](CCCNC(=N)N)C(=O)N[C@@H](CCCCN)C(=O)N[C@H](C(=O)N[C@@H](CC(C)C)C(=O)N[C@@H](C)C(=O)N[C@@H](CCC(N)=O)C(=O)N[C@@H](CC(C)C)C(=O)N[C@@H](CO)C(=O)N[C@@H](C)C(=O)N[C@@H](CCCNC(=N)N)C(=O)N[C@@H](CCCCN)C(=O)N[C@@H](CCCCN)C(=O)N[C@@H](CC(C)C)C(=O)N[C@@H](CCC(N)=O)C(=O)N[C@@H](CC(=O)O)C(=O)N[C@H](C(=O)N[C@@H](CCSC)C(=O)N[C@@H](CO)C(=O)N[C@@H](CCCNC(=N)N)C(N)=O)[C@@H](C)CC)C(C)C)[C@@H](C)O [GHRH analog #1, [D-Ala^2, Ala^8, Ala^15, Lys^22] hGHRH(1-29)-NH2] (H-Y[dA]DAIFTASYRKVLAQLSARKKLQDIMSR-NH2; N-terminus assumed) | 13.33 ± 0.31 | 499 ± 234 | 1.87 | 100 ± 0 % of initial concentration | – | – | – | –
[D-Ala2, D-Tyr10, D-Ala15, Lys22] hGHRH(1-29)-NH2 (peptide) | – | – | – | – | 1.04 | 1.2 | 6 | 939
YADAIFTAAYRKVLAQLSARKALQDIMSR-NH2 [GHRH analog #2, [Ala^8, Ala^9, Ala^15, Ala^22] hGHRH(1-29)-NH2] | 7.74 ± 3.49 | 3.70 ± 0.52 | 1.81 | 100 ± 0 % of initial concentration | – | – | – | –
